Reference: ChEMBL document CHEMBL1201862, “PubChem BioAssay data set” (2004)
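Cultured in 96-well plates, cells were exposed to test compound for 48 hours across five concentrations. GI50 is the concentration that inhibits growth by half.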 Activity calls are given as the source filed them. Rule as the data show it: active = GI50 up to about 1.1 µM and inactive = higher.

Legend:
Assay in all cases: NCI-60 cell line screen, 48 h
CAKI-1 = tested on: CAKI-1
SNB-19 = tested on: SNB-19
UACC-62 = tested on: UACC-62
SK-MEL-2 = tested on: SK-MEL-2
K562 = tested on: K562
A549 = tested on: A549
HOP-92 = tested on: HOP-92
SK-MEL-5 = tested on: SK-MEL-5
HL-60 = tested on: HL-60
SF-539 = tested on: SF-539
HT-29 = tested on: HT-29
Malme-3M = tested on: Malme-3M
RXF 393 = tested on: RXF 393
EKVX = tested on: EKVX
SN12C = tested on: SN12C

| Compound | GI50 (CAKI-1) | GI50 (SNB-19) | GI50 (UACC-62) | GI50 (SK-MEL-2) | GI50 (K562) | GI50 (A549) | GI50 (HOP-92) | GI50 (SK-MEL-5) | GI50 (HL-60) | GI50 (SF-539) | GI50 (HT-29) | GI50 (Malme-3M) | GI50 (RXF 393) | GI50 (EKVX) | GI50 (SN12C) |
| --- | --- | --- | --- | --- | --- | --- | --- | --- | --- | --- | --- | --- | --- | --- | --- |
| CC(C)[Si](OCC1CC(C[C@H]2CC(C[C@H]3C[C@@H](CO[Si](C(C)C)(C(C)C)C(C)C)OC(C)(C)O3)OC(C)(C)O2)OC(C)(C)O1)(C(C)C)C(C)C (stereo partly specified) | > 100 µM (inactive) | > 100 µM (inactive) | > 100 µM (inactive) | > 100 µM (inactive) | > 100 µM (inactive) | > 100 µM (inactive) | > 100 µM (inactive) | > 100 µM (inactive) | > 100 µM (inactive) | > 100 µM (inactive) | > 100 µM (inactive) | > 100 µM (inactive) | > 100 µM (inactive) | > 100 µM (inactive) | – |
| O=C(O)c1ccc([N+](=O)[O-])c2c(=O)c3ccccc3[nH]c12 | > 100 µM (inactive) | > 100 µM (inactive) | > 100 µM (inactive) | > 100 µM (inactive) | > 100 µM (inactive) | > 100 µM (inactive) | > 100 µM (inactive) | > 100 µM (inactive) | > 100 µM (inactive) | > 100 µM (inactive) | > 100 µM (inactive) | > 100 µM (inactive) | > 100 µM (inactive) | – | > 100 µM (inactive) |
| Cc1ccc(Cl)c(NC(=O)C(=O)C(C(=O)c2ccncc2)C2OC(=O)c3ccccc32)c1 (stereo unspecified) | > 100 µM (inactive) | – | > 100 µM (inactive) | – | > 100 µM (inactive) | > 100 µM (inactive) | > 100 µM (inactive) | > 100 µM (inactive) | > 100 µM (inactive) | > 100 µM (inactive) | > 100 µM (inactive) | > 100 µM (inactive) | > 100 µM (inactive) | > 100 µM (inactive) | > 100 µM (inactive) |
| COc1ccc2oc(-c3cc4cc(OC)ccc4o3)cc2c1 | > 100 µM (inactive) | > 100 µM (inactive) | > 100 µM (inactive) | > 100 µM (inactive) | > 100 µM (inactive) | > 100 µM (inactive) | > 100 µM (inactive) | > 100 µM (inactive) | > 100 µM (inactive) | – | – | > 100 µM (inactive) | > 100 µM (inactive) | > 100 µM (inactive) | > 100 µM (inactive) |
| CN(CC(=O)O)S(=O)(=O)c1ccc(F)cc1 | > 100 µM (inactive) | > 100 µM (inactive) | > 100 µM (inactive) | > 100 µM (inactive) | > 100 µM (inactive) | > 100 µM (inactive) | > 100 µM (inactive) | > 100 µM (inactive) | > 100 µM (inactive) | > 100 µM (inactive) | > 100 µM (inactive) | > 100 µM (inactive) | > 100 µM (inactive) | > 100 µM (inactive) | > 100 µM (inactive) |
| CCc1ccccc1NC(=O)/C(CC(=O)c1c(C)[n+]([O-])c2ccccc2[n+]1[O-])=N\NS(=O)(=O)c1ccc(C)cc1 | – | > 100 µM (inactive) | 18.9 µM (inactive) | > 100 µM (inactive) | 27.2 µM (inactive) | 34.9 µM (inactive) | – | – | 15.8 µM (inactive) | 36.6 µM (inactive) | 38.7 µM (inactive) | 57.4 µM (inactive) | > 100 µM (inactive) | 46 µM (inactive) | 28.8 µM (inactive) |
| Cc1ccc(NC(=O)CCc2nnc3s/c(=C\c4cccc([N+](=O)[O-])c4)c(=O)n23)cc1 | > 100 µM (inactive) | 84.5 µM (inactive) | > 100 µM (inactive) | > 100 µM (inactive) | > 100 µM (inactive) | > 100 µM (inactive) | 85.3 µM (inactive) | > 100 µM (inactive) | – | 25.3 µM (inactive) | > 100 µM (inactive) | > 100 µM (inactive) | > 100 µM (inactive) | > 100 µM (inactive) | > 100 µM (inactive) |
| CCCCN1C(=O)C2c3[nH]c4ccccc4c3C3CCCCC3C2C1=O.CCCCN1C(=O)C2c3[nH]c4ccccc4c3[C@@H]3CCCCC3C2C1=O (stereo unspecified) | 6.18 µM (inactive) | 23.4 µM (inactive) | 19.1 µM (inactive) | – | 14.7 µM (inactive) | 13.9 µM (inactive) | – | 23.6 µM (inactive) | 13.6 µM (inactive) | 14.8 µM (inactive) | 28.8 µM (inactive) | – | – | 21.4 µM (inactive) | 35.9 µM (inactive) |
| COC(=O)N/N=C(/Cc1occc(=O)c1O)C(=O)Nc1ccc([N+](=O)[O-])cc1[N+](=O)[O-] | > 100 µM (inactive) | > 100 µM (inactive) | > 100 µM (inactive) | > 100 µM (inactive) | > 100 µM (inactive) | > 100 µM (inactive) | > 100 µM (inactive) | > 100 µM (inactive) | > 100 µM (inactive) | > 100 µM (inactive) | > 100 µM (inactive) | > 100 µM (inactive) | > 100 µM (inactive) | > 100 µM (inactive) | > 100 µM (inactive) |
| COc1ccc(-c2cc(=O)c3ccccc3o2)cc1N | 18.7 µM (inactive) | 60.4 µM (inactive) | 25.8 µM (inactive) | 37.2 µM (inactive) | 12.2 µM (inactive) | 49.9 µM (inactive) | 76.2 µM (inactive) | 25.8 µM (inactive) | 15.6 µM (inactive) | 33.9 µM (inactive) | 32.8 µM (inactive) | > 100 µM (inactive) | 23.6 µM (inactive) | 16.4 µM (inactive) | 84.7 µM (inactive) |
| O/N=C(\c1nc2ccc(Cl)cc2nc1O)C(O)c1ccc(Cl)cc1Cl (stereo unspecified) | > 100 µM (inactive) | > 100 µM (inactive) | > 100 µM (inactive) | – | > 100 µM (inactive) | > 100 µM (inactive) | > 100 µM (inactive) | > 100 µM (inactive) | > 100 µM (inactive) | > 100 µM (inactive) | > 100 µM (inactive) | > 100 µM (inactive) | > 100 µM (inactive) | – | > 100 µM (inactive) |
| Cc1cc(Cl)ccc1N1C(=O)C(=O)C(c2nc3ccccc3o2)C(=O)C1=O | > 100 µM (inactive) | > 100 µM (inactive) | 65 µM (inactive) | > 100 µM (inactive) | – | > 100 µM (inactive) | 58.7 µM (inactive) | > 100 µM (inactive) | 33.2 µM (inactive) | > 100 µM (inactive) | 65.8 µM (inactive) | > 100 µM (inactive) | > 100 µM (inactive) | > 100 µM (inactive) | > 100 µM (inactive) |
| COc1ccc(/C=[N+](\[O-])[C@H](COCc2ccccc2)c2ccccc2)cc1 | – | 46.7 µM (inactive) | – | 30.3 µM (inactive) | 45.3 µM (inactive) | > 10 µM (inactive) | 23.9 µM (inactive) | – | 25 µM (inactive) | > 100 µM (inactive) | 52.1 µM (inactive) | 42.1 µM (inactive) | 98.9 µM (inactive) | 30.1 µM (inactive) | – |
| CC(=O)OC(=O)O/C=C\CCl | > 100 µM (inactive) | > 100 µM (inactive) | > 100 µM (inactive) | > 100 µM (inactive) | > 100 µM (inactive) | > 100 µM (inactive) | – | > 100 µM (inactive) | 29.4 µM (inactive) | > 100 µM (inactive) | – | > 100 µM (inactive) | > 100 µM (inactive) | – | > 100 µM (inactive) |
| COCC(O)CN1C(N)=NC(O)C1O (stereo unspecified) | > 100 µM (inactive) | > 100 µM (inactive) | – | > 100 µM (inactive) | – | > 100 µM (inactive) | > 100 µM (inactive) | > 100 µM (inactive) | > 100 µM (inactive) | > 100 µM (inactive) | > 100 µM (inactive) | > 100 µM (inactive) | > 100 µM (inactive) | > 100 µM (inactive) | > 100 µM (inactive) |
| C[n+]1cccc(NC(=O)c2ccc(NC(=O)C34CCC(C(=O)Nc5ccc(C(=O)Nc6ccc[n+](C)c6)cc5)(CC3)CC4)cc2)c1 | – | 24.9 µM (inactive) | > 100 µM (inactive) | – | 2.55 µM (inactive) | 22.5 µM (inactive) | > 100 µM (inactive) | 33.2 µM (inactive) | 1.87 µM (inactive) | 80.5 µM (inactive) | 45.9 µM (inactive) | – | 22.1 µM (inactive) | 26.9 µM (inactive) | 3.23 µM (inactive) |
| COc1cc(C2C(C(=O)Nc3cc(F)c(F)cc3F)=C(C)NC(C)=C2C(=O)Nc2cc(F)c(F)cc2F)ccc1O | 12.3 µM (inactive) | 29.2 µM (inactive) | – | 22.5 µM (inactive) | 18.4 µM (inactive) | 24.6 µM (inactive) | 0.982 µM (active) | 18.5 µM (inactive) | 15.7 µM (inactive) | 26.8 µM (inactive) | 29 µM (inactive) | 24.7 µM (inactive) | 10.6 µM (inactive) | 14.9 µM (inactive) | 17.7 µM (inactive) |
| COc1ccc(C2ON(c3ccccc3)CC=C2C)cc1 (stereo unspecified) | 47.8 µM (inactive) | > 100 µM (inactive) | 87.1 µM (inactive) | 24 µM (inactive) | 60.5 µM (inactive) | 62.2 µM (inactive) | – | – | 34.6 µM (inactive) | > 100 µM (inactive) | 34.4 µM (inactive) | > 100 µM (inactive) | 34.4 µM (inactive) | > 100 µM (inactive) | > 100 µM (inactive) |
| Cc1ccc(NC(=O)c2cccc([N+](=O)[O-])c2O)c([N+](=O)[O-])c1 | 29.5 µM (inactive) | 22.4 µM (inactive) | 12 µM (inactive) | – | 18.8 µM (inactive) | 21.6 µM (inactive) | 21.5 µM (inactive) | – | 25.9 µM (inactive) | 14.7 µM (inactive) | 12.1 µM (inactive) | 14.9 µM (inactive) | 11.3 µM (inactive) | 23.2 µM (inactive) | 16.5 µM (inactive) |
